Reference: patent US20240016861A1, “COMBINATION THERAPY FOR TREATING OR PREVENTING CANCER” (4D Pharma Research Limited, priority 2018, published 2024)

Assays:
[1] = test system: RENCA tumour cells; experiment: Antitumor activity, RENCA model; format: in vivo, mouse; conditions: D18 and D22, compared to untreated and vehicle groups, FIG. 3B
Method: Treatment schedule—The start of first dosing was considered as D0. On D0, non-engrafted mice were randomized according to their individual body weight into groups of 9 mice using Vivo manager® software (Biosystemes, Couternon, France). On D0, the mice received vehicle (culture medium) or bacterial strain (2×10^8 in 200 μL, PO). On D14, all mice were engrafted with RENCA tumour cells injected SC into the ventral surface of the lower flank as described below. Treatment with anti-CTLA-4 (10 mg/kg, IP) and anti-PDL1 (clone 10F.9G2, 10 mg/kg) was initiated when tumours reached a volume of 50-70 mm3.
Orthotopic induction of RENCA tumor cells in animals by SC injection—On D14, one million (1×10^6) RENCA tumor cells in 50 ΞL RPMI 1640 medium were transplanted via SC injection into the ventral surface of the lower flank of mice.
Euthanasia - Each mouse was euthanized when it reached a humane endpoint as described in section below, or after a maximum of 6 weeks post start of dosing.
Evaluation of tumour burden at euthanasia—At the time of termination, tumours were collected and their volume evaluated.
Clinical monitoring—The length and width of the tumour was measured twice a week with callipers and the volume of the tumour was estimated by this formula [52]: […]

[2] = test system: immature dendritic cells; experiment: Cytokine production in immature dendritic cells; format: cell-based; conditions: compared to the negative control, MRX518 10^7/ml, LPS 100 ng/ml, FIG. 4
Method: A monocyte population was isolated from peripheral blood mononuclear cells (PBMCs). The monocyte cells were subsequently differentiated into immature dendritic cells. The immature dendritic cells were plated out at 200,000 cells/well and incubated with MRX518 at a final concentration of 10^7/ml, with the optional addition of LPS at a final concentration of 100 ng/ml. The negative control involved incubating the cells with RPMI media alone and positive controls incubated the cells with LPS at a final concentration of 100ng/ml. The cytokine content of the cells was then analysed.

Compound | tumour size [1] | level of IL-6 [2] | level of TNF-α [2]
CC(=O)O[C@H]1C(=O)[C@@]2(C)[C@H]([C@H](OC(=O)c3ccccc3)[C@]3(O)C[C@H](OC(=O)[C@H](O)[C@@H](NC(=O)c4ccccc4)c4ccccc4)C(C)=C1C3(C)C)[C@]1(OC(C)=O)CO[C@@H]1C[C@@H]2O [Paclitaxel] | (almost) complete reduction |  | 
lipopolysaccharide [LPS] |  | increase | increase
